≈ marks a conversion by molar mass, not a printed value.
How the values were obtained:
[1] = cited from earlier work; for pKa: Source: Drugbank or FDA
[2] = cited from earlier work; for aqueous solubility in water: Source: Drugbank

COc1ccc(-n2nc(C(N)=O)c3c2C(=O)N(c2ccc(N4CCCCC4=O)cc2)CC3)cc1 [Apixaban, apixaban]
detectable pKa ([1]; within pH range of 0.0-10.0, Source: Drugbank): no detectable pKa
aqueous solubility in water [2]: 40 to 50 µg/mL

O=C(O)Cc1ccccc1Nc1c(Cl)cccc1Cl [Diclofenac, diclofenac]
solubility in intestinal fluid of neutral pH ([2]; as sodium salt, intestinal fluid of neutral pH): 1113 μg/mL

CC(=O)Oc1cc2c(s1)CCN(C(C(=O)C1CC1)c1ccccc1F)C2 (centres unmarked) [Prasugrel, prasugrel]
pKa [1]: 5.48
aqueous solubility in water [2]: 2.37 µg/mL (≈ 6.35 µM)

CC(C)Cc1ccc(C(C)C(=O)O)cc1 (centres unmarked) [Ibuprofen, ibuprofen]
solubility of ibuprofen alone at pH 1.2 ([2]; pH 1.2, drug alone, same figure as Drugbank water solubility): 0.021 mg/mL

CCC(C)n1ncn(-c2ccc(N3CCN(c4ccc(OCC5COC(Cn6cncn6)(c6ccc(Cl)cc6Cl)O5)cc4)CC3)cc2)c1=O (centres unmarked) [itraconazole]
solubility in gastric fluid ([2]; gastric fluid): 3500 µg/mL (≈ 4960 µM)
solubility in intestinal fluid ([2]; intestinal fluid): 0.2 µg/mL (≈ 0.283 µM)

COC(=O)[C@H](c1ccccc1Cl)N1CCc2sccc2C1 [Clopidogrel, clopidogrel]
pKa [1]: 4.5
solubility (physchem; aqueous solution at pH 1.2, pH 1.2, simulated gastric fluid): 5200 µg/mL (≈ 16200 µM)
solubility (physchem; aqueous solution at pH 6.8, pH 6.8, aqueous buffer): 14 µg/mL (≈ 43.5 µM)
